Results on two compounds are retold here after patent US6743796B2, “Piperazinyl-isatins” (Wyeth, priority 2001, dated 2004).

The structures appear in SMILES notation. Structures can show the parent of a compound that is named as a salt.

For data set [1], the target named is T1, dopamine autoreceptor (D2 Quin.) (Rattus norvegicus, UniProt P61169).
T1 construct: from tissue; host or cells: rat striatal brain tissue homogenate
Description: Affinity for the dopamine autoreceptor: [3H]-quinpirole binding in homogenized rat striatal brain tissue. Particulars: rat striatal brain tissue (high-affinity agonist state). As to the method: Affinity for the dopamine autoreceptor was established by a modification of the standard pharmacological test procedure of Seemen and Schaus, European Journal of Pharmacology 203: 105-109, 1991, wherein homogenized rat striatal brain tissue is incubated with [^3H]-quinpirole (Quin.) at various concentrations of test compound, filtered, washed and counted in a Betaplate scintillation counter.

In the next data set the test system is dopamine D2 receptor. As to the kind of experiment: Affinity for the dopamine D2 receptor: [3H]-spiperidone binding in homogenized limbic brain tissue. Particulars: ratio of IC50 D2 Spiper to IC50 D2 Quin. (LowAg/HighAg). As to the method:
High affinity for the dopamine D2 receptor was established by the standard pharmacological test procedure of Fields, et al., Brain Res., 136, […] (1977) and Yamamura et al., ed., Neurotransmitter Receptor Binding, Raven Press, N.Y. (1978) wherein homogenized limbic brain tissue is incubated with [^3H]-spiperidone at various concentrations of test compound, filtered washed, and shaken with Hydrofluor scintillation cocktail (National Diagnostics) and counted in a Packard 460 CD scintillation counter.

T1 sequence (P61169 whole entry): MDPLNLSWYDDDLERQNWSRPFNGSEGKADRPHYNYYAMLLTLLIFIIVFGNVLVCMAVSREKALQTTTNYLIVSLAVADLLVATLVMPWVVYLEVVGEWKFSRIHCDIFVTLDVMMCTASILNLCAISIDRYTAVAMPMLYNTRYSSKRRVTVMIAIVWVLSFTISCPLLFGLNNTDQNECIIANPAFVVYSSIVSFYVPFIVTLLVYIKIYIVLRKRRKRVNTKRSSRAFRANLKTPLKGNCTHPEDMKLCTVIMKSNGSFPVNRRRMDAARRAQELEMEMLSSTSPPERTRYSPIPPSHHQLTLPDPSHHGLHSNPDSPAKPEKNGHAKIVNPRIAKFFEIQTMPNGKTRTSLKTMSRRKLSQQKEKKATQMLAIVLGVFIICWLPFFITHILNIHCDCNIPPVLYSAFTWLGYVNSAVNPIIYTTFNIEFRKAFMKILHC

On to `O=C1Nc2cccc(N3CCN(Cc4ccccc4)CC3)c2C1=O` (as salt: fumarate) (hydrate or solvate) [Example V, 4-(4-Benzyl-piperazin-1-yl)-1H-indole-2,3-dione], for which the melting point (commonly the temperature, or range, at which the solid turns liquid) is 118 to 120 °C.
Consider `O=C1Nc2cccc(N3CCN(Cc4ccccc4)CC3)c2C1=O` [Example V, 4-(4-Benzyl-piperazin-1-yl)-1H-indole-2,3-dione], for which the IC50 (in general, the point on the concentration scale where inhibition reaches its midpoint) in data set [1] was determined as 0.57 ± 0.2 nM. Moreover, the Ratio antagonist with dopamine D2 receptor is 149.
